Data published in patent publication US20250244310A1, “METHODS OF IDENTIFICATION AND TARGETING OF MASTER KINASES IN CANCER” (The Trustees of Columbia University in the City of New York, priority 2022, published 2025).

Experiments:
[1] = test system: phosphorylation of PKCδ on tyr-311; test: Western blot of GPM PDOs incubated with IGF-I, IGF-II or insulin; format: cell-based, human; conditions: IGF-I 10 ng/ml, IGF-II 10 ng/ml, insulin 100 ng/ml, FIGS. 14b, c
Source text: (§1) V9131), and j-actin 1:10,000 (Sigma, no. A5441).

[2] = test system: BRCA cell lines; test: DepMap menadione survival ratio, BRCA cell lines; format: cell-based; conditions: 26 BRCA cell lines from DepMap; p=0.008
Source text: (§2) We used the BRCA and LUSC cell lines cohorts from DepMap for which both RNA-Seq expression and menadione survival ratio from PRISM Repurposing Primary Screen were available (n=26 for BRCA and n=71 for LUSC)^94. For each cell line, we used the transcriptomic profile to calculated the NES of the four functional GBM subtypes by MWW-GST using gene signatures obtained from the analysis of TCGA samples. Each cell line was classified according the highest subtype activity (NES). We assessed the difference in survival ratio between the mitochondrial cell lines and the others using two-sided Student t-test, unequal variance.

[3] = test system: LUSC cell lines; test: DepMap menadione survival ratio, LUSC cell lines; format: cell-based; conditions: 71 LUSC cell lines from DepMap; p=0.076
Source text: as §2

[4] = test system: GPM PDOs; test: Irradiation-drug combination viability, GPM PDOs; format: cell-based, human; conditions: eight GPM PDOs; FIG. 5k
Description: (§3) Cells were cultured in DMEM/F12 medium supplemented with N-2, B-27, EGF and FGF. Cells were plated in 130 μl in opaque white 96-well plates. Twenty-four hrs later cells were treated with 3-fold serial dilutions of compounds as indicated in six replicates for 72 hrs. Viability was determined using CellTiterGlo assay reagent (Promega, G7570) and GloMax-Multi+ Microplate Multimode Reader (Promega). For the irradiation-drug combination treatment, PDOs cells were plated in 96 well plates 24 hrs before treatment. Cells were treated with 3-fold serial dilutions of M3814 two hrs before exposure to various irradiation doses (2, 4, 8 Gy at 0.7 Gy/min) from a ^137Cs source (GammaCell 40 irradiator, Teratronics). Mock irradiated cells were cultured in parallel. Viability was determined 96 hrs later using CellTiterGlo assay reagent (Promega, G7570) and GloMax-Multi+ Microplate Multimode Reader (Promega). Data are mean±s.d. of the viability ratio from 6 observations in 8 PPR and 8 GPM PDOs. Experiments were performed at least twice with similar results. Clonogenic assays for the evaluation of irradiation-drug combination were performed in 96 well plates. Each experimental point was plated in 3 independent 96 well plates. The number of wells containing PDO spheres were scored and the value of control untreated cell was considered 100% clonogenicity for the specific PDO. […]

[5] = test system: PPR and GPM PDOs; test: Clonogenic assay for irradiation-drug combination; format: cell-based, human; conditions: two PPR and GPM PDOs, irradiation plus nedisertib; FIG. 15b
Description: as §3

[6] = test system: PPR GBM PDOs; test: Irradiation-drug combination viability, PPR PDOs; format: cell-based, human
Description: as §3

[7] = test system: serine-2056 phosphorylation of DNA-PKcs; conditions: irradiated PPR PDO cells; FIG. 5l
Description: Cells were lysed in RIPA buffer (50 mM Tris-HCl pH 7.5, 150 mM NaCl, 1 mM EDTA, 1% NP40, 0.5% sodium dexoycholate, 0.1% sodium dodecyl sulfate, 1.5 mM Na3VO4, 50 mM sodiumfluoride, 10 mM sodium pyrophosphate, 10 mM β-glycerolphosphate and EDTA-free protease inhibitor cocktail; Roche). Lysates briefly sonicated, cleared by centrifugation at 15,000 r.p.m. for 15 min at 4° C., separated by SDS-polyacrylamide gel electrophoresis and transferred to polyvinylidene difluoride membrane. Membranes were blocked in Tris-buffered saline with 5% nonfat milk and 0.1% Tween 20 and probed with primary antibodies overnight at 4° C. Antibodies0 and concentrations were as follows: p-DNA-PK 1:1,000 (Ser2056, CST, #68716), DNA-PK 1:1,000 (CST, #38168), p-NBS1 1:1,000 (Ser343, CST, #3001), NBS1 1:1,000 (CST, #81234), p-KAP1 1:1,000 (Ser824, Abcam, ab133440), KAP1 1:1,000 (Abcam, ab109287), p-CHK1 (Ser317, CST, #12302), CHK1 (CST, #2360), p-PKCδ 1:1,000 (Tyr311, CST, #20555), PKCδ 1:1,000 (CST, #96165), p-STAT3 1:1,000 (Tyr705, CST, #91455), STAT3 1:1,000 (CST, #49045) p-AKT 1:1,000 (Ser473, CST, #40605), p-AKT 1:1,000 (Thr308, CST, #13038S), AKT 1:1,000 (CST, #49615), p-ERK1/2 1:1,000 (Thr202/Tyr204, CST, #4370), ERK1/2 1:1,000 (CST, #9102), GAPDH 1:10,000 (Abcam, ab9484), Vinculin 1:10,000 (Sigma, no. V9131), and j-actin 1:10,000 (Sigma, no. A5441). […]

[8] = test system: γH2AX foci; test: Immunofluorescence analysis of γH2AX foci in PPR PDO cells; format: cell-based, human; conditions: IR 4 Gy plus nedisertib 556 nM, 0-24 hr, FIG. 5m
Description: Cells were fixed with 4% paraformaldehyde, permeabilized with cold methanol for 90 seconds at 4° C., and blocked with 5% BSA, 0.05% Triton X-100 in PBS for 30 minutes. Cells were exposed to primary antibody phospho-H2AX 1:500 (S139, CST, #2577) for one hour at room temperature followed by Cy3-conjugated anti rabbit (Invitrogen, A10520) for one hour at room temperature. Nuclei were stained with DAPI (Sigma). Images were acquired using a Nikon Ti Eclipse inverted microscope for spinning-disk confocal microscopy equipped with a Plan Apochromat 60× oil/1.4 NA DIC objective. Counting of TH2AX foci in individual nuclei were analyzed by ImageJ (NIH, Bethesda, USA) by specific in-built find Maxima>Prominence>Point Selection plug-in. Minimum 50 nuclei in at least ten representative images were included for analysis in each treatment group.

[9] = test system: phosphorylation of serine-343 of NBS1 and serine-824 of KAP1; test: Western blot of PPR PDO cells, irradiation plus nedisertib: double-strand break markers; format: cell-based, human; conditions: PPR PDOs, until 24 hours after irradiation, FIG. 5l
Source text: as §1

[10] = test system: AKT-ser-473 and STAT3-tyr-705 phosphorylation; test: Western blot of GPM PDO cells treated with BJE6-106; format: cell-based, human; conditions: BJE6-106 at 50 µM, time course, FIG. 5d
Source text: as §1

[11] = test system: GPM PDO cells; test: Colony-forming (clonogenic) assay of GPM PDO cells treated with BJE6-106; format: cell-based, human; conditions: FIG. 5c
Description: Cell growth and clonogenic assay. Time course analysis of the cellular growth of shPRKCD infected PDOs or the empty vector was performed by plating 4,500 cells per well in 96-well plates. Viability was determined using CellTiterGlo assay reagent (Promega, G7570) and the GloMax-Multi+ Microplate Multimode Reader (Promega). Data are mean±s.d. of five replicates, and experiments were repeated twice. For clonogenic assay of PDO cells treated with increasing concentration of BJE6-106, 1,500 cells were plated in 6-well plates in triplicate. Cells were fixed in methanol and stained with crystal violet 2 weeks later. Colonies with more than 50 cells were scored. Data are mean±s.d. of triplicate observations from one representative experiment. Experiments were repeated twice.

## IGF2: growth factor used to stimulate GPM PDOs (10 ng/ml)
[1]
  phosphorylation of PKCδ on tyr-311: induced phosphorylation of PKCδ on tyr-311

## IGF1: growth factor used to stimulate GPM PDOs (10 ng/ml)
[1]
  phosphorylation of PKCδ on tyr-311: induced phosphorylation of PKCδ on tyr-311

## CC1=CC(=O)c2ccccc2C1=O [menadione]
[2]
  menadione survival ratio, difference between mitochondrial cell lines versus the others, log2(FC): −1.31
[3]
  menadione survival ratio, difference between mitochondrial cell lines versus the others, log2(FC): −0.63

## COc1ccc([C@@H](O)c2cc(-c3ncnc4cc(N5CCOCC5)ccc34)c(F)cc2Cl)nn1 [nedisertib]
[4]
  effect of nedisertib-IR combination on viability: virtually ineffective
[5]
  radiosensitivity by clonogenic assay: confirmed these results
[6]; eight PPR GBM PDOs, FIG. 5k
  tumor cell viability, nedisertib-IR combination compared to each individual treatment: marked reduction of tumor cell viability
[6]; six of the eight PPR PDOs, even at the lowest concentrations of nedisertib
  radiation dose enhancement factor (DEF): > 2
[7]
  serine-2056 phosphorylation of DNA-PKcs: inhibited serine-2056 phosphorylation of DNA-PKcs
[8]
  number of γH2AX foci: remained elevated throughout the course of the experiment
[9]
  phosphorylation of serine-343 of NBS1 and serine-824 of KAP1 (unrepaired DNA damage): sustained phosphorylation of serine-343 of NBS1 and serine-824 of KAP1

## CC1(C)C=Cc2cc(CCn3c4ccccc4c4ccccc43)cc(C=O)c2O1 [BJE-10676]
[10]
  AKT-ser-473 and STAT3-tyr-705 phosphorylation: time-dependent decrease of AKT-ser-473 and STAT3-tyr-705 phosphorylation
[11]
  colony formation: dose-dependent inhibition of colony formation

## insulin: hormone used to stimulate GPM PDOs (100 ng/ml)
[1]
  phosphorylation of PKCδ on tyr-311: induced phosphorylation of PKCδ on tyr-311
